This note sets out measurements from US20250042889A1, “3CLPRO PROTEASE INHIBITOR” (SHANGHAI QILU PHARMACEUTICAL RESEARCH AND DEVELOPMENT …, priority 2021, published 2025).

The assay deals with SARS-COV-2 3CLpro/Mpro protease (Severe acute respiratory syndrome coronavirus 2 (2019-nCoV) (SARS-CoV-2), UniProt P0DTD1). As to the kind of experiment: Inhibitory effect on SARS-COV-2 3CLpro/Mpro protease by fluorescence resonance energy transfer. The class given is biochemical. Conditions: activity intervals A-D, read-out: IC50 (nM), Inhibition on SARS-CoV-2 3CLpro/Mpro protease.

Consider `C[C@H]1CCCN(C(=O)c2cc(Br)cc([N+](=O)[O-])c2N[C@@H]2CCCN(C(=O)[C@H]3CC(=O)N[C@@H](C)C3)C2)C1` [Example 33, (4R,6S)-4-((R)-3-((4-bromo-2-((S)-3-methylpiperidin-1-carbonyl)-6-nitrophenyl)amino)piperidin-1-carbonyl)-6-methylpiperidin-2-one], for which the IC50 was 10 to 50 nM. `CNc1cncc(C(=O)N2CCC[C@@H](Nc3c(C(=O)N4CCO[C@H](CF)C4)cc(Br)cc3[N+](=O)[O-])C2)c1` [Example 37]: the IC50 lay in the range of 10 to 50 nM.

As to `O=C(c1cc(Br)cc([N+](=O)[O-])c1N[C@@H]1CCCN(C(=O)c2cncc3ccccc23)C1)N1CCOCC1` [Example 38], the IC50 was below 10 nM. Consider `O=C(c1cc(Br)cc([N+](=O)[O-])c1N[C@@H]1CCCN(C(=O)c2cncc3ccccc23)C1)N1CCCC1` [Example 39], for which the IC50 is below 10 nM. As for `O=C(c1cc(Br)cc([N+](=O)[O-])c1N[C@@H]1CCN(C(=O)c2cncc3ccccc23)C1)N1CCCC1` [Example 40], the figure is 10 to 50 nM; as for `N#Cc1cncc(C(=O)N2CCC[C@@H](Nc3c(C(=O)N4CCCCC4)cc(Br)cc3[N+](=O)[O-])C2)c1` [Example 41], 10 to 50 nM; as for `Nc1cncc(C(=O)N2CCC[C@@H](Nc3c(C(=O)N4CCCCC4)cc(Br)cc3[N+](=O)[O-])C2)c1` [Example 42], 10 to 50 nM.

On to `Cc1cncc(C(=O)N2CCC[C@@H](Nc3c(C(=O)N4CCCCC4)cc(Br)cc3[N+](=O)[O-])C2)c1` [Example 43], for which the IC50 lay in the range of 10 to 50 nM. The value for `O=C(c1cncc(Br)c1)N1CCC[C@@H](Nc2c(C(=O)N3CC4CC4C3)cc(Br)cc2[N+](=O)[O-])C1` (some centres unmarked) [Example 44] was below 10 nM; that for `O=C(c1cncc(C2CC2)c1)N1CCC[C@@H](Nc2c(C(=O)N3CCCCC3)cc(Br)cc2[N+](=O)[O-])C1` [Example 45] was 10 to 50 nM; that for `Cc1c(Br)cncc1C(=O)N1CCC[C@@H](Nc2c(C(=O)N3CCCCC3)cc(Br)cc2[N+](=O)[O-])C1` [Example 46] was 10 to 50 nM. The value for `O=C(c1cncc(Br)c1)N1CC[C@@H](Nc2c(C(=O)N3CCCCC3)cc(Br)cc2C(F)(F)F)C1` [Example 47] was 10 to 50 nM. For `O=C(c1cc(Br)cc(C(F)(F)F)c1N[C@@H]1CCN(C(=O)c2cncc3ccccc23)C1)N1CCCCC1` [Example 48], the IC50 lay in the range of 10 to 50 nM. For `O=C(c1cncc(Br)c1)N1CCC[C@@H](Nc2c(C(=O)N3CCC(F)(F)CC3)cc(Br)cc2C(F)(F)F)C1` [Example 49], the IC50 fell in the range of 10 to 50 nM. As to `O=C(c1cncc(O)c1)N1CCC[C@@H](Nc2c(C(=O)N3CCC(F)(F)CC3)cc(Br)cc2[N+](=O)[O-])C1` [Example 50], the IC50 is 50 to 100 nM. As to `O=C(c1cc(Br)cc([N+](=O)[O-])c1N[C@@H]1CCN(C(=O)c2cncc3cc(Cl)ccc23)C1)N1CC2CC2C1` (some centres unmarked) [Example 51], the IC50 was in the range of 10 to 50 nM. Consider `O=C(c1cc(=O)[nH]c(=O)[nH]1)N1CCC[C@@H](Nc2c(C(=O)N3CCC(F)(F)CC3)cc(Br)cc2[N+](=O)[O-])C1` [Example 53], for which the IC50 fell in the range of 50 to 100 nM. In the case of `O=C(c1cc(Br)cc([N+](=O)[O-])c1N[C@@H]1CCCN(C(=O)c2cc(=O)[nH]c3ccccc23)C1)N1CCC(F)(F)CC1` [Example 54], the IC50 is 10 to 50 nM. For the compound `CNc1cncc(C(=O)N2CCC[C@@H](Nc3c(C(=O)N4CCO[C@H](C(F)F)C4)cc(Br)cc3[N+](=O)[O-])C2)c1` [Example 55], the IC50 is 10 to 50 nM.

For the compound `O=C(c1cc(Br)cc([N+](=O)[O-])c1N[C@@H]1CCCN(C(=O)c2cnnc3ccccc23)C1)N1CCCCC1` [Example 56], the IC50 was in the range of 10 to 50 nM. As for `N#Cc1cc(Cl)cc(C(=O)N2CCCCC2)c1N[C@@H]1CCCN(C(=O)c2cncc3ccccc23)C1` [Example 59], the figure is 10 to 50 nM; as for `O=C(c1cncnc1)N1CCC[C@@H](Nc2c(C(=O)N3CCCCC3)cc(Br)cc2[N+](=O)[O-])C1` [Example 60], 50 to 100 nM; as for `O=C(c1cncc(OC(F)F)c1)N1CCC[C@@H](Nc2c(C(=O)N3CCCCC3)cc(Br)cc2[N+](=O)[O-])C1` [Example 61], 50 to 100 nM.

On to `O=C(c1cncc(Br)c1)N1CC[C@@H](Nc2c(C(=O)N3CCCCC3)cc(Br)cc2[N+](=O)[O-])C1` [Example 64], for which the IC50 lay in the range of 10 to 50 nM.

Consider `O=C(c1cncc(Br)c1)N1CCC[C@@H](Nc2c(C(=O)N3CCCC3)cc(Br)cc2[N+](=O)[O-])C1` [Example 65], for which the IC50 lay within 10 to 50 nM. In the case of `O=C(c1cncc(Br)c1)N1CCC[C@@H](Nc2c(C(=O)N3CCCCC3)cc(Br)cc2C(F)(F)F)C1` [Example 66], the IC50 was 10 to 50 nM.

For the compound `O=C(c1cc(Br)cc(C(F)(F)F)c1N[C@@H]1CCCN(C(=O)c2cncc3ccccc23)C1)N1CCCCC1` [Example 67], the IC50 was in the range of 10 to 50 nM. Consider `O=C(c1cncc(Br)c1)N1CC[C@@H](Nc2c(C(=O)N3CCCCC3)cc(Br)cc2C(F)(F)F)C1` [Example 68], for which the IC50 lay in the range of 50 to 100 nM. As for `O=C(c1cncc(Br)c1)N1CC[C@@H](Nc2c(C(=O)N3CCC(F)(F)CC3)cc(Br)cc2C(F)(F)F)C1` [Example 69], the figure is 50 to 100 nM. Turning to `O=C(c1cncc(C(F)(F)F)c1)N1CCC[C@@H](Nc2c(C(=O)N3CCC(F)(F)CC3)cc(Br)cc2[N+](=O)[O-])C1` [Example 70], the IC50 lay in the range of 10 to 50 nM. As for `Nc1cncc(C(=O)N2CCC[C@@H](Nc3c(C(=O)N4CCC(F)(F)CC4)cc(Br)cc3[N+](=O)[O-])C2)c1` [Example 71], the figure is 10 to 50 nM; as for `C[C@@H]1C[C@H](C)CN(C(=O)c2cc(Br)cc([N+](=O)[O-])c2N[C@@H]2CCCN(C(=O)c3cncc(Br)c3)C2)C1` [Example 72], below 10 nM; as for `C[C@@H]1CN(C(=O)c2cc(Br)cc([N+](=O)[O-])c2N[C@@H]2CCCN(C(=O)c3cncc(Br)c3)C2)C[C@H](C)N1` [Example 73], 10 to 50 nM. The value for `Cc1cncc(C(=O)N2CCC[C@@H](Nc3c(C(=O)N4CCC(F)(F)CC4)cc(Br)cc3[N+](=O)[O-])C2)c1` [Example 74] was 50 to 100 nM. As for `O=C(c1cncc(I)c1)N1CCC[C@@H](Nc2c(C(=O)N3CCC(F)(F)CC3)cc(Br)cc2[N+](=O)[O-])C1` [Example 75], the figure is below 10 nM.

Regarding `C[C@@H]1CN(C(=O)c2cc(Br)cc([N+](=O)[O-])c2N[C@@H]2CCN(C(=O)c3cncc(Br)c3)C2)C[C@H](C)O1` [Example 76], the IC50 is below 10 nM. For the compound `CNc1cncc(C(=O)N2CCC[C@@H](Nc3c(C(=O)N4C[C@@H](C)N(C)[C@@H](C)C4)cc(Br)cc3[N+](=O)[O-])C2)c1` [Example 79], the IC50 was in the range of 50 to 100 nM. Take `CNc1cncc(C(=O)N2C[C@H](Nc3c(C(=O)N4CCCCC4)cc(Br)cc3[N+](=O)[O-])C(F)(F)C2)c1` [Example 81]: the IC50 was in the range of 10 to 50 nM.

Take `CNc1cncc(C(=O)N2C[C@H](Nc3c(C(=O)N4CCCCC4)cc(Br)cc3[N+](=O)[O-])C3(CC3)C2)c1` [Example 82]: the IC50 lay in the range of 10 to 50 nM. As to `CNc1cncc(C(=O)N2C[C@H](Nc3c(C(=O)N4CC5C(C4)C5(C)C)cc(Br)cc3[N+](=O)[O-])C3(CC3)C2)c1` (some centres unmarked) [Example 83], the IC50 lay within 10 to 50 nM. As for `CNc1cncc(C(=O)N2C[C@H](Nc3c(C(=O)N4CCN(CC(F)(F)F)CC4)cc(Br)cc3[N+](=O)[O-])C3(CC3)C2)c1` [Example 84], the figure is 10 to 50 nM; as for `CNc1cncc(C(=O)N2C[C@H](Nc3c(C(=O)N4CCN(CC(F)(F)F)C(=O)C4)cc(Br)cc3[N+](=O)[O-])C3(CC3)C2)c1` [Example 85], 10 to 50 nM; as for `CNc1cncc(C(=O)N2C[C@H](Nc3c(C(=O)N4C[C@H](C)C[C@H](C)C4)cc(Br)cc3[N+](=O)[O-])C3(CC3)C2)c1` [Example 86], 10 to 50 nM. As for `CNc1cncc(C(=O)N2C[C@H](Nc3c(C(=O)N4CCC(C)(C)CC4)cc(Br)cc3[N+](=O)[O-])C3(CC3)C2)c1` [Example 87], the figure is 10 to 50 nM; as for `Cc1cc(C(=O)N2C[C@H](Nc3c(C(=O)N4CC5C(C4)C5(C)C)cc(Br)cc3[N+](=O)[O-])C3(CC3)C2)cc(=O)[nH]1` (some centres unmarked) [Example 88], 10 to 50 nM.

Take `Cc1cc(C(=O)N2C[C@H](Nc3c(C(=O)NCC(F)(F)F)cc(Br)cc3[N+](=O)[O-])C3(CC3)C2)cc(=O)[nH]1` [Example 89]: the IC50 lay within 10 to 50 nM. Regarding `Cc1cc(C(=O)N2C[C@H](Nc3c(C(=O)N4CCN(CC(F)(F)F)CC4)cc(Br)cc3[N+](=O)[O-])C3(CC3)C2)cc(=O)[nH]1` [Example 90], the IC50 lay in the range of 10 to 50 nM. Turning to `Cc1cc(C(=O)N2C[C@H](Nc3c(C(=O)N4CCN(CC(F)(F)F)C(=O)C4)cc(Br)cc3[N+](=O)[O-])C3(CC3)C2)cc(=O)[nH]1` [Example 91], the IC50 lay in the range of 10 to 50 nM.

As to `Cc1cc(C(=O)N2C[C@H](Nc3c(C(=O)N4C[C@H](C)C[C@H](C)C4)cc(Br)cc3[N+](=O)[O-])C3(CC3)C2)cc(=O)[nH]1` [Example 92], the IC50 lay in the range of 10 to 50 nM. The value for `Cc1cc(C(=O)N2C[C@H](Nc3c(C(=O)N4CCC(C)(C)CC4)cc(Br)cc3[N+](=O)[O-])C3(CC3)C2)cc(=O)[nH]1` [Example 93] was 10 to 50 nM. The value for `Cc1cc(C(=O)N2C[C@H](Nc3c(C(=O)N4CCC5(CC4)CC5)cc(Br)cc3[N+](=O)[O-])C3(CC3)C2)cc(=O)[nH]1` [Example 94] was 10 to 50 nM; that for `Cc1cc(C(=O)N2C[C@H](Nc3c(C(=O)N4CCC5(CCC5)CC4)cc(Br)cc3[N+](=O)[O-])C3(CC3)C2)cc(=O)[nH]1` [Example 95] was 10 to 50 nM. The value for `CNc1cncc(C(=O)N2CCC[C@@H](Nc3c(C(=O)N4CC(=O)NC(C)C4)cc(Br)cc3[N+](=O)[O-])C2)c1` (some centres unmarked) [Example 96] was 50 to 100 nM. As for `CNc1cncc(C(=O)N2CC(Nc3c(C(=O)N4CCN(CC(F)(F)F)CC4)cc(Br)cc3[N+](=O)[O-])C(F)(F)C2)c1` (centres unmarked) [Example 98], the IC50 lay in the range of 10 to 50 nM. For the compound `CNc1cncc(C(=O)N2CC(Nc3c(C(=O)N4CCN(CC(F)(F)F)C(=O)C4)cc(Br)cc3[N+](=O)[O-])C(F)(F)C2)c1` (centres unmarked) [Example 99], the IC50 was in the range of 100 to 200 nM. As for `CNc1cncc(C(=O)N2CC(Nc3c(C(=O)N4C[C@H](C)C[C@H](C)C4)cc(Br)cc3[N+](=O)[O-])C(F)(F)C2)c1` (some centres unmarked) [Example 100], the figure is 10 to 50 nM.
